The text below walks through data of US12622965B2, “Therapeutical tools and methods using temperature-sensitive receptors for treating blindness” (FRIEDRICH MIESCHER INSTITUTE FOR BIOMEDICAL RESEARCH, priority 2020, dated 2026).

The test system of assay [1] is HEK cells expressing TRPV1.459-6x-His, TRPV1.465-6x-His or untagged TRPV1. The experiment in a line: whole cell voltage clamp in HEK cells expressing TRPV1 variants, activated by capsaicin. The format is cell-based. Conditions: TRPV1 agonist capsaicin 2.5 μM bath applied; voltage clamp −60 mV; mean±s.e.m. An excerpt:
First, they developed a system based on rat TRPV1 channels and gold nanorods with absorption maxima at 915 nm. 915 nm was selected to ensure low water absorption. […] To measure if tagged channels are functional, they performed whole cell voltage clamp in HEK cells expressing TRPV1.459-6x-His, TRPV1.465-6x-His or untagged TRPV1 while activating the channels by TRPV1 agonist capsaicin. The size of evoked currents were similar between TRPV1.465-6x-His and TRPV1 (Mann-Whitney U test, P=0.8551; TRPV1.465-6x-His, 1633±164 pA, […] 15 cells; TRPV1, 1766±276 pA, n=14 cells; mean±s.e.m), but less in TRPV1.459-6x-His (Mann-Whitney U test, P=0.0207; TRPV1.459-6x-His, 976±118 pA, n=19 cells; mean±s.e.m). Therefore, they used TRPV1.465-6x-His (rTRPV1) in subsequent experiments.
For HEK293T cell experiments, cells were maintained at 37° C. on poly-D-lysine/laminin coated coverslips (GG-12-Laminin, Neuvitro) in DMEM supplemented with 10% fetal bovine serum. Cells were transfected with plasmids containing TRP variants using branched PEI. Cells were perfused in oxygenated Ringer's medium containing 110 mM NaCl, 2.5 mM KCl, 1 mM CaCl2, 1.6 mM MgCl2, 10 mM D-glucose and 22 mM NaHCO3 at ˜36° C. for the duration of the experiment. […] Data was analyzed offline using MATLAB (MathWorks).

The subject of assay [2] is human retina (ONL, INL, GCL cells). The experiment in a line: two-photon acousto-optic calcium imaging of NIR responses in ex vivo human retina. The assay is classed as cell-based. An excerpt:
High-speed three-dimensional acousto-optic calcium imaging of neuronal network activity permits observation of response propagation from photoreceptors through the retina. To detect NIR light driven responses in the human retina, the inventors deposited nanorods (Abs 915 nm) over the photoreceptor side of the retina and performed two-photon calcium imaging of individual cells in the outer nuclear layer (ONL), which hosts photoreceptors, the inner nuclear layer (INL), which hosts horizontal, bipolar and amacrine cells, and the ganglion cell layer (GCL) which hosts ganglion and amacrine cells. To record calcium signals, the fluorescent calcium dye Oregon Green 488 BAPTA-1 (OGB-1) was electroporated into the cells. […] In cells of the INL and GCL layers, bidirectional changes in the calcium signal indicate activation of excitatory and inhibitory retinal pathways. More cells responded in the GCL than in the ONL, reflecting convergent retinal circuit organization (Chi Squared Test, P=0.0006; GCL, n=41 responding neurons, n=83 total neurons, 49.4%; ONL, n=16 responding photoreceptors, n=74 total photoreceptors, 21.6%). There was no significant difference in number of NIR light responding cells between INL and GCL (Chi Squared Test, P=0.89; INL, n=46 responding neurons, n=93 total neurons, 49.5%).
Human retinal tissue was obtained after corneal tissue harvest from adult multi-organ donors with no reported history of eye disease, n=2 eyes from n=2 donors. After cornea isolation, the iris, lens, and vitreous were removed and the retina was submerged in flowing Ames' medium (Sigma, A1420) saturated with 95% O2 and 5% CO2. […] Samples used for tissue culture were of mid-peripheral origin, midway between the fovea and the anterior retinal border. For organotypic retinal culture, 4×4 mm retinal pieces were isolated and placed photoreceptor-side-up on polycarbonate membranes inserts (Corning, 3412). The cultures were maintained at 37° C. and 5% CO2 in DMEM/F12 medium (Thermo Fisher Scientific), supplemented with 0.1% bovine serum albumin (BSA), 10 μM O-acetyl-L-carnitine hydrochloride, 1 mM fumaric acid, 0.5 mM galactose, 1 mM glucose, 0.5 mM glycine, 10 mM HEPES, 0.05 mM mannose, 13 mM sodium bicarbonate, 3 mM taurine, 0.1 mM putrescine dihydrochloride, 0.35 μM retinol, 0.3 μM retinyl acetate, 0.2 μM (+)-α-tocopherol, 0.5 mM ascorbic acid, 0.05 μM sodium selenite, 0.02 μM hydrocortisone, 0.02 μM progesterone, 1 μM insulin, 0.003 μM 3,3′,5-triiodo-L-thyronine, 2 000 U penicillin and 2 mg streptomycin (Sigma). For AAV infection, 40 μL of virus was applied per retinal explant 4-5 days after plating. The culture medium was renewed every 48 hours. Light responses were recorded from samples 8 weeks post-mortem. […]

The mark [3] stands for this setting: nanorods (Abs 915 nm) on photoreceptor side, 8 weeks post-mortem.

Regarding “TRPV1.465-6x-His: rat TRPV1 channel with 6x-His epitope tag inserted in the first extracellular loop after amino acid 465; delivered by AAV”, the “size of evoked currents” value in assay [1] stood at 1633±164 pA. Besides, in assay [2] (setting [3]), the “NIR light responding cells in the GCL” value came to 49.4%, the “NIR light responding cells in the INL” value came to 49.5% and the “NIR light responding photoreceptors in the ONL” value was determined as 21.6%. Also, in assay [2] (rTRPV1 transduced explants (n=3), nanorods (Abs 915 nm)), the “NIR light-evoked activation in retinal explants” value is given as “NIR light-evoked activation could be detected”.
